Results published in US10681909B2, “Herbicidal triazoles” (FMC Corporation, priority 2014, dated 2020).

Assays:
soybean = test: Test C preemergence; format: in vivo, Glycine max; conditions: for Soybean plant response rating (0 to 100): Preemergence, visual rating after 13 to 15 d; for Plant response rating (scale of 0 to 100 where 0 is no effect and 100 is complete control): Soybean, preemergence, 250 g ai/ha
Description: (§1) Seeds of plant species selected from blackgrass (Alopecurus myosuroides), ryegrass, Italian (Italian ryegrass, Lolium multiflorum), wheat (winter wheat, Triticum aestivum), galium (catchweed bedstraw, Galium aparine), corn (Zea mays), crabgrass, large (large crabgrass, Digitaria sanguinalis), foxtail, giant, (giant foxtail, Setaria faberii), johnsongrass (Sorghum halepense), lambsquarters (Chenopodium album), morningglory (Ipomoea coccinea), nutsedge, yellow (yellow nutsedge, Cyperus esculentus), pigweed (Amaranthus retroflexus), ragweed (common ragweed, Ambrosia elatior), soybean (Glycine max), barnyardgrass (Echinochloa crus-galli), oilseed rape (Brassica napus), waterhemp (common waterhemp, Amaranthus rudis), and velvetleaf (Abutilon theophrasti) were planted into a blend of loam soil and sand and treated preemergence with test chemicals formulated in a non-phytotoxic solvent mixture which included a surfactant. At the same time, plants selected from these crop and weed species and also chickweed (common chickweed, Stellaria media), oat, wild (wild oat, Avena fatua), and kochia (Kochia scoparia), were planted in pots containing Sunshine Redi-Earth® planting medium comprising spaghnum peat moss, vermiculite, starter nutrients and dolomitic limestone and treated with postemergence applications of test chemicals formulated in the same manner. Plants ranged in height from 2 to 18 cm (1- to 4-leaf stage) for postemergence treatments. […] A dash (-) response means no test result.

blackgrass [1] = test: Test C preemergence; format: in vivo, Alopecurus myosuroides; conditions: for Plant response rating (scale of 0 to 100 where 0 is no effect and 100 is complete control): Blackgrass, preemergence; for Blackgrass plant response rating (0 to 100): Preemergence, visual rating after 13 to 15 d
Description: as §1

velvetleaf = test: Test C preemergence; format: in vivo, Abutilon theophrasti; conditions: for Velvetleaf plant response rating (0 to 100): Preemergence, visual rating after 13 to 15 d; for Plant response rating (scale of 0 to 100 where 0 is no effect and 100 is complete control): Velvetleaf, preemergence, 250 g ai/ha
Description: as §1

kochia = test: Test D preemergence; format: in vivo, Kochia scoparia; conditions: for Plant response rating (0 to 100), Kochia: 16 g ai/ha, 0 is no effect, 100 is complete control; for Plant response rating: Kochia: scale 0 to 100
Description: (§2) Seeds of plant species selected from bluegrass (annual bluegrass, Poa annua), blackgrass (Alopecurus myosuroides), canarygrass (Phalaris minor), chickweed (common chickweed, Stellaria media), galium (catchweed bedstraw, Galium aparine), bromegrass, down (downy bromegrass, Bromus tectorum), Russian thistle (Salsola kali), field poppy (Papaver rhoeas), field violet (Viola arvensis), foxtail, green (green foxtail, Setaria viridis), deadnettle (henbit deadnettle, Lamium amplexicaule), ryegrass, Ital. (Italian ryegrass, Lolium multiflorum), kochia (Kochia scoparia), lambsquarters (Chenopodium album), oilseed rape (Brassica napus), pigweed (Amaranthus retroflexus), chamomile (scentless chamomile, Matricaria inodora), speedwell (bird's-eye speedwell, Veronica persica), barley, spring (spring barley, Hordeum vulgare), wheat, spring (spring wheat, Triticum aestivum), buckwheat, wild (wild buckwheat, Polygonum convolvulus), wild mustard (Sinapis arvensis), oat, wild (wild oat, Avena fatua), radish, wild (wild radish, Raphanus raphanistrum), […]), barley, winter (winter barley, Hordeum vulgare), and wheat, winter (winter wheat, Triticum aestivum) were planted into a silt loam soil and treated preemergence with test chemicals formulated in a non-phytotoxic solvent mixture which included a surfactant. At the same time, these species were planted in pots containing Sunshine Redi-Earth® planting medium comprising spaghnum peat moss, vermiculite, starter nutrients and dolomitic limestone and treated with postemergence applications of the test chemicals formulated in the same manner. Plants ranged in height from 2 to 18 cm (1- to 4-leaf stage). Treated plants and controls were maintained in a controlled growth environment for 14 to 21 d after which time all species were compared to controls and visually evaluated. […] A dash (-) response means no test result.

canarygrass = test: Test D preemergence; format: in vivo, Phalaris minor; conditions: for Plant response rating (0 to 100), Canarygrass: 16 g ai/ha, 0 is no effect, 100 is complete control; for Plant response rating: Canarygrass: scale 0 to 100
Description: as §2

blackgrass [2] = test: Test D postemergence; format: in vivo, Alopecurus myosuroides; conditions: scale 0 to 100
Description: as §2

crabgrass, large = test: Test C preemergence; format: in vivo, Digitaria sanguinalis; conditions: for Plant response rating (scale of 0 to 100 where 0 is no effect and 100 is complete control): Crabgrass, Large, preemergence; for Crabgrass, Large plant response rating (0 to 100): Preemergence, visual rating after 13 to 15 d
Description: as §1

blackgrass [3] = test: Test D preemergence; format: in vivo, Alopecurus myosuroides; conditions: for Plant response rating (0 to 100), Blackgrass: 16 g ai/ha, 0 is no effect, 100 is complete control; for Plant response rating: Blackgrass: scale 0 to 100
Description: as §2

corn = test: Test C preemergence; format: in vivo, Zea mays; conditions: for Plant response rating (scale of 0 to 100 where 0 is no effect and 100 is complete control): Corn, preemergence; for Corn plant response rating (0 to 100): Preemergence, visual rating after 13 to 15 d
Description: as §1

Structure (SMILES) | Soybean plant response rating (0 to 100) (soybean; 31 g ai/ha) | Soybean plant response rating (0 to 100) (soybean; 62 g ai/ha) | Plant response rating (scale of 0 to 100 where 0 is no effect and 100 is complete control) (soybean) | Plant response rating (scale of 0 to 100 where 0 is no effect and 100 is complete control) (blackgrass [1]; 125 g ai/ha) | Plant response rating (scale of 0 to 100 where 0 is no effect and 100 is complete control) (blackgrass [1]; 250 g ai/ha) | Blackgrass plant response rating (0 to 100) (blackgrass [1]; 31 g ai/ha) | Blackgrass plant response rating (0 to 100) (blackgrass [1]; 62 g ai/ha) | Velvetleaf plant response rating (0 to 100) (velvetleaf; 31 g ai/ha) | Velvetleaf plant response rating (0 to 100) (velvetleaf; 62 g ai/ha) | Plant response rating (scale of 0 to 100 where 0 is no effect and 100 is complete control) (velvetleaf) | Plant response rating (0 to 100), Kochia (kochia) | Plant response rating: Kochia (kochia; 62 g ai/ha) | Plant response rating: Kochia (kochia; 125 g ai/ha) | Plant response rating (0 to 100), Canarygrass (canarygrass) | Plant response rating: Canarygrass (canarygrass; 31 g ai/ha) | Plant response rating: Canarygrass (canarygrass; 62 g ai/ha) | Plant response rating: Canarygrass (canarygrass; 125 g ai/ha) | Plant response rating: Blackgrass (blackgrass [2]; 16 g ai/ha) | Plant response rating: Blackgrass (blackgrass [2]; 31 g ai/ha) | Plant response rating: Blackgrass (blackgrass [2]; 62 g ai/ha) | further results
CCOc1nc(-c2ccccc2)nn1Cc1ccnc(C(F)(F)F)c1 [Compound 27] | 35 | 40 | 75 | 50 | 90 | 5 | 5 | 10 | 70 | 100 | 85 | 95 | 100 | 35 | 55 | 75 | 98 | 45 | 50 | 55 | Plant response rating: Blackgrass (blackgrass [2]; 125 g ai/ha): 65; Plant response rating (scale of 0 to 100 where 0 is no effect and 100 is complete control) (crabgrass, large; 125 g ai/ha): 100; Plant response rating (scale of 0 to 100 where 0 is no effect and 100 is complete control) (crabgrass, large; 250 g ai/ha): 100; Crabgrass, Large plant response rating (0 to 100) (crabgrass, large; 31 g ai/ha): 100; Crabgrass, Large plant response rating (0 to 100) (crabgrass, large; 62 g ai/ha): 100; Plant response rating (0 to 100), Blackgrass (blackgrass [3]): 25; Plant response rating: Blackgrass (blackgrass [3]; 31 g ai/ha): 30; Plant response rating: Blackgrass (blackgrass [3]; 62 g ai/ha): 45; Plant response rating: Blackgrass (blackgrass [3]; 125 g ai/ha): 70; Plant response rating (scale of 0 to 100 where 0 is no effect and 100 is complete control) (corn; 125 g ai/ha): 55; Plant response rating (scale of 0 to 100 where 0 is no effect and 100 is complete control) (corn; 250 g ai/ha): 60; Corn plant response rating (0 to 100) (corn; 31 g ai/ha): 25; Corn plant response rating (0 to 100) (corn; 62 g ai/ha): 40
Fc1ccc(-c2nc(OCC(F)(F)F)n(Cc3ccnc(C(F)(F)F)c3)n2)cc1 [Compound 30] | 10 | 5 | 40 | 90 | 90 | 60 | 80 | 20 | 70 | 85 | 85 | 90 | 95 | 50 | 70 | 100 | 100 | 45 | 60 | 65 | Plant response rating: Blackgrass (blackgrass [2]; 125 g ai/ha): 75; Plant response rating (scale of 0 to 100 where 0 is no effect and 100 is complete control) (crabgrass, large; 125 g ai/ha): 100; Plant response rating (scale of 0 to 100 where 0 is no effect and 100 is complete control) (crabgrass, large; 250 g ai/ha): 100; Crabgrass, Large plant response rating (0 to 100) (crabgrass, large; 31 g ai/ha): 98; Crabgrass, Large plant response rating (0 to 100) (crabgrass, large; 62 g ai/ha): 100; Plant response rating (0 to 100), Blackgrass (blackgrass [3]): 30; Plant response rating: Blackgrass (blackgrass [3]; 31 g ai/ha): 45; Plant response rating: Blackgrass (blackgrass [3]; 62 g ai/ha): 60; Plant response rating: Blackgrass (blackgrass [3]; 125 g ai/ha): 70; Plant response rating (scale of 0 to 100 where 0 is no effect and 100 is complete control) (corn; 125 g ai/ha): 30; Plant response rating (scale of 0 to 100 where 0 is no effect and 100 is complete control) (corn; 250 g ai/ha): 35; Corn plant response rating (0 to 100) (corn; 31 g ai/ha): 5; Corn plant response rating (0 to 100) (corn; 62 g ai/ha): 15
